Measurements: BigSolDB 2.1

**Q.** Which solubility (mole fraction) (in ethylene glycol, 288.15 K) does the source give for `O=C(Nc1ccc(Cl)cc1)Nc1ccc(Cl)c(Cl)c1` here?
**A.** 4.25e-06

**Q.** What about the solubility (mole fraction) (in ethylene glycol, 293.15 K) of the same compound?
**A.** 5.89e-06

**Q.** And the solubility (mole fraction) (in ethylene glycol, 298.15 K)?
**A.** 8.3e-06

**Q.** What about the solubility (mole fraction) (in ethylene glycol, 303.15 K) of the same compound?
**A.** 1.02e-05

**Q.** And the solubility (mole fraction) (in ethylene glycol, 308.15 K)?
**A.** 1.38e-05

**Q.** What about the solubility (mole fraction) (in ethylene glycol, 313.15 K) of the same compound?
**A.** 2.14e-05

**Q.** What about the solubility (mole fraction) (in ethylene glycol, 318.15 K) of the same compound?
**A.** 2.64e-05

**Q.** What about the solubility (mole fraction) (in water, 288.15 K) of the same compound?
**A.** 1.96e-09

**Q.** What about the solubility (mole fraction) (in water, 293.15 K) of the same compound?
**A.** 2.38e-09

**Q.** What about the solubility (mole fraction) (in water, 298.15 K) of the same compound?
**A.** 2.85e-09

**Q.** What about the solubility (mole fraction) (in water, 303.15 K) of the same compound?
**A.** 3.78e-09

**Q.** What about the solubility (mole fraction) (in water, 308.15 K) of the same compound?
**A.** 5.72e-09

**Q.** And the solubility (mole fraction) (in water, 313.15 K)?
**A.** 7.48e-09

**Q.** And the solubility (mole fraction) (in water, 318.15 K)?
**A.** 9.28e-09
